Results: PubChem BioAssay (NCI)
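Five compound concentrations were applied to cells in 96-well plates for 48 hours; endpoints were derived by simple linear interpolation of the resulting dose-response curve. GI50: concentration for 50% inhibition of growth. TGI is the concentration that stops growth completely.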

Key:
Experiment in all cases: NCI anticancer screen, dose series, 48 h
[1] = test system: HS 578T breast
[2] = test system: CCRF-CEM leukemia
[3] = test system: MDA-MB-231 breast
[4] = test system: COLO 205 colon
[5] = test system: MALME-3M melanoma
[6] = test system: SNB-19 CNS
[7] = test system: SK-OV-3 ovarian
[8] = test system: HOP-62 NSCLC
[9] = test system: MOLT-4 leukemia
[10] = test system: HOP-92 NSCLC
[11] = test system: NCI-H460 lung
[12] = test system: HCC-2998 colon
[13] = test system: ACHN renal
[14] = test system: OVCAR-8 ovarian
[15] = test system: DU-145 prostate
[16] = test system: K-562 leukemia
[17] = test system: TK-10 renal
[18] = test system: HCT-15 colon
[19] = test system: NCI-H226 lung
[20] = test system: LOX IMVI melanoma
[21] = test system: SF-539 CNS
[22] = test system: SK-MEL-2 melanoma
[23] = test system: RXF 393 renal
[24] = test system: NCI/ADR-RES ovarian
[25] = test system: PC-3 prostate
[26] = test system: SF-295 CNS
[27] = test system: SK-MEL-28 melanoma
[28] = test system: A498 renal
[29] = test system: SN12C renal
[30] = test system: OVCAR-3 ovarian
[31] = test system: UACC-62 melanoma
[32] = test system: KM12 colon
[33] = test system: HT29 colon
[34] = test system: HCT-116 colon
[35] = test system: CAKI-1 renal
[36] = test system: MDA-MB-435
[37] = test system: IGROV1 ovarian
[38] = test system: BT-549 breast
[39] = test system: SNB-75 CNS
[40] = test system: UO-31 renal
[41] = test system: EKVX NSCLC
[42] = test system: MCF7 breast
[43] = test system: HL-60(TB) leukemia
[44] = test system: OVCAR-4 ovarian
[45] = test system: SW-620 colon
[46] = test system: NCI-H23 lung
[47] = test system: UACC-257 melanoma
[48] = test system: SR leukemia
[49] = test system: OVCAR-5 ovarian
[50] = test system: T-47D breast
[51] = test system: SF-268 CNS
[52] = test system: NCI-H522 lung
[53] = test system: M14 melanoma
[54] = test system: 786-0 renal
[55] = test system: RPMI-8226 leukemia
[56] = test system: MDA-MB-468 breast
[57] = test system: SK-MEL-5 melanoma
[58] = test system: A549 NSCLC

SMILES: COc1cc2cc(C(=O)N3C[C@@H](CCl)c4c3cc(OC(=O)N(C)CCSSCCN3CCOCC3)c3ccccc43)[nH]c2c(OC)c1OC
- GI50 [1]: 627 nM
- TGI [1]: 1970 nM
- GI50 [2]: 281 nM
- TGI [2]: > 25000 nM
- GI50 [3]: 270 nM
- TGI [3]: 1180 nM
- GI50 [4]: 1150 nM
- TGI [4]: 2680 nM
- GI50 [5]: 229 nM
- TGI [5]: 673 nM
- GI50 [6]: 95 nM
- TGI [6]: 2550 nM
- GI50 [7]: 107 nM
- TGI [7]: 925 nM
- GI50 [8]: 29.4 nM
- TGI [8]: 511 nM
- GI50 [9]: 51.9 nM
- TGI [9]: > 25000 nM
- GI50 [10]: 1130 nM
- TGI [10]: > 18600 nM
- GI50 [11]: 26.3 nM
- TGI [11]: > 9660 nM
- GI50 [12]: 154 nM
- TGI [12]: 575 nM
- GI50 [13]: 19.3 nM
- TGI [13]: 554 nM
- GI50 [14]: 125 nM
- TGI [14]: 1520 nM
- GI50 [15]: 34.1 nM
- TGI [15]: > 25000 nM
- GI50 [16]: 608 nM
- TGI [16]: > 25000 nM
- GI50 [17]: 819 nM
- TGI [17]: 3120 nM
- GI50 [18]: 335 nM
- TGI [18]: 2990 nM
- GI50 [19]: 29.5 nM
- TGI [19]: 122 nM
- GI50 [20]: 41.7 nM
- TGI [20]: 334 nM
- GI50 [21]: 25.7 nM
- TGI [21]: 116 nM
- GI50 [22]: 210 nM
- TGI [22]: 463 nM
- GI50 [23]: 28 nM
- TGI [23]: 95.1 nM
- GI50 [24]: 362 nM
- TGI [24]: 1290 nM
- GI50 [25]: 214 nM
- TGI [25]: > 25000 nM
- GI50 [26]: 87.2 nM
- TGI [26]: 1470 nM
- GI50 [27]: 128 nM
- TGI [27]: 293 nM
- GI50 [28]: 272 nM
- TGI [28]: 1330 nM
- GI50 [29]: 69 nM
- TGI [29]: 1920 nM
- GI50 [30]: 575 nM
- TGI [30]: 1630 nM
- GI50 [31]: 130 nM
- TGI [31]: 482 nM
- GI50 [32]: 286 nM
- TGI [32]: > 8850 nM
- GI50 [33]: 496 nM
- TGI [33]: > 8760 nM
- GI50 [34]: 612 nM
- TGI [34]: > 25000 nM
- GI50 [35]: 137 nM
- TGI [35]: 5730 nM
- GI50 [36]: 141 nM
- TGI [36]: 361 nM
- GI50 [37]: 358 nM
- TGI [37]: 1460 nM
- GI50 [38]: 66.5 nM
- TGI [38]: 330 nM
- GI50 [39]: 348 nM
- TGI [39]: 921 nM
- GI50 [40]: 69.2 nM
- TGI [40]: 452 nM
- GI50 [41]: 178 nM
- TGI [41]: 844 nM
- GI50 [42]: 45.7 nM
- TGI [42]: 2240 nM
- GI50 [43]: 251 nM
- TGI [43]: 4950 nM
- GI50 [44]: 621 nM
- TGI [44]: 1830 nM
- GI50 [45]: 865 nM
- TGI [45]: > 25000 nM
- GI50 [46]: 33.3 nM
- TGI [46]: 164 nM
- GI50 [47]: 642 nM
- TGI [47]: 4320 nM
- GI50 [48]: 19.7 nM
- TGI [48]: > 25000 nM
- GI50 [49]: 228 nM
- TGI [49]: 1060 nM
- GI50 [50]: 1010 nM
- TGI [50]: 5720 nM
- GI50 [51]: 45.4 nM
- TGI [51]: > 25000 nM
- GI50 [52]: 1330 nM
- TGI [52]: 7370 nM
- GI50 [53]: 69.9 nM
- TGI [53]: 318 nM
- GI50 [54]: 196 nM
- TGI [54]: 1050 nM
- GI50 [55]: 1000 nM
- TGI [55]: > 25000 nM
- GI50 [56]: 133 nM
- TGI [56]: 505 nM

SMILES: COc1ccc2[nH]cc(-c3cc4nc(-c5cn(C)c6ncccc56)cc(N)n4n3)c2c1
- GI50 [1]: 20300 nM
- TGI [1]: 64600 nM
- GI50 [2]: 2560 nM
- TGI [2]: > 100000 nM
- GI50 [3]: 2330 nM
- TGI [3]: 5200 nM
- GI50 [4]: 4710 nM
- TGI [4]: > 100000 nM
- GI50 [5]: 5020 nM
- TGI [5]: 18300 nM
- GI50 [6]: 8670 nM
- TGI [6]: 32200 nM
- GI50 [7]: 52800 nM
- TGI [7]: > 100000 nM
- GI50 [8]: 10200 nM
- TGI [8]: > 100000 nM
- GI50 [9]: 1790 nM
- TGI [9]: > 100000 nM
- GI50 [10]: 4840 nM
- TGI [10]: 51700 nM
- GI50 [57]: 6180 nM
- TGI [57]: 19300 nM
- GI50 [13]: 3480 nM
- TGI [13]: 12500 nM
- GI50 [14]: 4930 nM
- TGI [14]: > 100000 nM
- GI50 [15]: 6360 nM
- TGI [15]: > 100000 nM
- GI50 [17]: 19100 nM
- TGI [17]: > 100000 nM
- GI50 [18]: 1910 nM
- TGI [18]: 4530 nM
- GI50 [19]: 20400 nM
- TGI [19]: 57200 nM
- GI50 [20]: 2020 nM
- TGI [20]: 3600 nM
- GI50 [21]: 1630 nM
- TGI [21]: 3050 nM
- GI50 [22]: 19300 nM
- TGI [22]: 53200 nM
- GI50 [23]: 1670 nM
- TGI [23]: 3270 nM
- GI50 [25]: 6670 nM
- TGI [25]: > 100000 nM
- GI50 [26]: 1680 nM
- TGI [26]: 3260 nM
- GI50 [27]: 10800 nM
- TGI [27]: 23400 nM
- GI50 [28]: 25300 nM
- TGI [28]: 49400 nM
- GI50 [29]: 6930 nM
- TGI [29]: 23800 nM
- GI50 [30]: 12500 nM
- TGI [30]: > 100000 nM
- GI50 [31]: 14200 nM
- TGI [31]: 27800 nM
- GI50 [32]: 3410 nM
- TGI [32]: > 100000 nM
- GI50 [34]: 3600 nM
- TGI [34]: 33500 nM
- GI50 [35]: 4030 nM
- TGI [35]: 23500 nM
- GI50 [36]: 10800 nM
- TGI [36]: 27800 nM
- GI50 [37]: 2120 nM
- TGI [37]: 4930 nM
- GI50 [38]: 7030 nM
- TGI [38]: 38300 nM
- GI50 [40]: 3590 nM
- TGI [40]: 17500 nM
- GI50 [41]: 8550 nM
- TGI [41]: 62300 nM
- GI50 [42]: 2010 nM
- TGI [42]: 4940 nM
- GI50 [43]: 1480 nM
- TGI [43]: 4780 nM
- GI50 [44]: 2060 nM
- TGI [44]: 5150 nM
- GI50 [46]: 6290 nM
- TGI [46]: 24700 nM
- GI50 [47]: 21500 nM
- TGI [47]: 55400 nM
- GI50 [48]: 2550 nM
- TGI [48]: > 100000 nM
- GI50 [49]: 4660 nM
- TGI [49]: 19200 nM
- GI50 [50]: 5770 nM
- TGI [50]: 90100 nM
- GI50 [51]: 13500 nM
- TGI [51]: > 100000 nM
- GI50 [58]: 2750 nM
- TGI [58]: > 100000 nM
- GI50 [52]: 4480 nM
- TGI [52]: > 100000 nM
- GI50 [53]: 4560 nM
- TGI [53]: 32300 nM
- GI50 [54]: 1540 nM
- TGI [54]: 2920 nM
- GI50 [55]: 3050 nM
- TGI [55]: > 100000 nM
- GI50 [56]: 1530 nM
- TGI [56]: 3120 nM
